In ChEMBL document CHEMBL4000244, “Probing A-form DNA: A fluorescent aminosugar probe and dual recognition by anthraquinone-neomycin conjugates” (Bioorg Med Chem, 2017):

Key:
[1] = Binding affinity to 5'-CCGCCGGG-3' DNA hairpin assessed as change in fluorescence intensity at 1 uM after 45 mins by fluorescence quenching analysis relative to control
[2] = Binding affinity to 5'-CCGCCCCC-3' DNA hairpin assessed as change in fluorescence intensity at 1 uM after 45 mins by fluorescence quenching analysis relative to control
[3] = Binding affinity to 5'-CCCCCGGC-3' DNA hairpin assessed as change in fluorescence intensity at 1 uM after 45 mins by fluorescence quenching analysis relative to control
[4] = Binding affinity to 5'-CCCCCCGG-3' DNA hairpin assessed as change in fluorescence intensity at 1 uM after 45 mins by fluorescence quenching analysis relative to control
[5] = Binding affinity to 5'-CGCCCCGG-3' DNA hairpin assessed as change in fluorescence intensity at 1 uM after 45 mins by fluorescence quenching analysis relative to control
[6] = Binding affinity to 5'-CGGCCGGG-3' DNA hairpin assessed as change in fluorescence intensity at 1 uM after 45 mins by fluorescence quenching analysis relative to control
[7] = Binding affinity to 5'-CGGGGCCG-3' DNA hairpin assessed as change in fluorescence intensity at 1 uM after 45 mins by fluorescence quenching analysis relative to control
[8] = Binding affinity to 5'-GCCCCCGC-3' DNA hairpin assessed as change in fluorescence intensity at 1 uM after 45 mins by fluorescence quenching analysis relative to control
[9] = Binding affinity to 5'-CGGCCGCC-3' DNA hairpin assessed as change in fluorescence intensity at 1 uM after 45 mins by fluorescence quenching analysis relative to control
[10] = Binding affinity to 5'-CCCGCGCC-3' DNA hairpin assessed as change in fluorescence intensity at 1 uM after 45 mins by fluorescence quenching analysis relative to control
[11] = Binding affinity to 5'-GCGCGCCC-3' DNA hairpin assessed as change in fluorescence intensity at 1 uM after 45 mins by fluorescence quenching analysis relative to control
[12] = Binding affinity to 5'-CCCCCGCC-3' DNA hairpin assessed as change in fluorescence intensity at 1 uM after 45 mins by fluorescence quenching analysis relative to control
[13] = Binding affinity to 5'-GGCGGGGG-3' DNA hairpin assessed as change in fluorescence intensity at 1 uM after 45 mins by fluorescence quenching analysis relative to control
[14] = Binding affinity to 5'-GGGGGCCC-3' DNA hairpin assessed as change in fluorescence intensity at 1 uM after 45 mins by fluorescence quenching analysis relative to control
[15] = Binding affinity to 5'-CCGGGGCG-3' DNA hairpin assessed as change in fluorescence intensity at 1 uM after 45 mins by fluorescence quenching analysis relative to control
[16] = Binding affinity to 5'-CGCGCGCC-3' DNA hairpin assessed as change in fluorescence intensity at 1 uM after 45 mins by fluorescence quenching analysis relative to control
[17] = Binding affinity to 5'-GGCCGGCC-3' DNA hairpin assessed as change in fluorescence intensity at 1 uM after 45 mins by fluorescence quenching analysis relative to control
[18] = Binding affinity to 5'-GGCCCGGC-3' DNA hairpin assessed as change in fluorescence intensity at 1 uM after 45 mins by fluorescence quenching analysis relative to control
[19] = Binding affinity to 5'-GGCCGCGC-3' DNA hairpin assessed as change in fluorescence intensity at 1 uM after 45 mins by fluorescence quenching analysis relative to control
[20] = Binding affinity to 5'-CCGCCGGC-3' DNA hairpin assessed as change in fluorescence intensity at 1 uM after 45 mins by fluorescence quenching analysis relative to control
[21] = Binding affinity to 5'-CGCCCCGC-3' DNA hairpin assessed as change in fluorescence intensity at 1 uM after 45 mins by fluorescence quenching analysis relative to control
[22] = Binding affinity to 5'-CCCCCGGG-3' DNA hairpin assessed as change in fluorescence intensity at 1 uM after 45 mins by fluorescence quenching analysis relative to control
[23] = Binding affinity to 5'-CCGGGCGC-3' DNA hairpin assessed as change in fluorescence intensity at 1 uM after 45 mins by fluorescence quenching analysis relative to control
[24] = Binding affinity to 5'-CCGCGCCG-3' DNA hairpin assessed as change in fluorescence intensity at 1 uM after 45 mins by fluorescence quenching analysis relative to control
[25] = Binding affinity to 5'-GCCGGCGC-3' DNA hairpin assessed as change in fluorescence intensity at 1 uM after 45 mins by fluorescence quenching analysis relative to control
[26] = Binding affinity to 5'-GCCCCGGG-3' DNA hairpin assessed as change in fluorescence intensity at 1 uM after 45 mins by fluorescence quenching analysis relative to control
[27] = Binding affinity to 5'-CCCGCCCC-3' DNA hairpin assessed as change in fluorescence intensity at 1 uM after 45 mins by fluorescence quenching analysis relative to control
[28] = Binding affinity to 5'-GCGGCGCG-3' DNA hairpin assessed as change in fluorescence intensity at 1 uM after 45 mins by fluorescence quenching analysis relative to control
[29] = Binding affinity to 5'-GGGCCGGC-3' DNA hairpin assessed as change in fluorescence intensity at 1 uM after 45 mins by fluorescence quenching analysis relative to control
[30] = Binding affinity to 5'-GGCGGGGC-3' DNA hairpin assessed as change in fluorescence intensity at 1 uM after 45 mins by fluorescence quenching analysis relative to control
[31] = Binding affinity to 5'-GGCCCCGG-3' DNA hairpin assessed as change in fluorescence intensity at 1 uM after 45 mins by fluorescence quenching analysis relative to control
[32] = Binding affinity to 5'-CGCGCCGC-3' DNA hairpin assessed as change in fluorescence intensity at 1 uM after 45 mins by fluorescence quenching analysis relative to control
[33] = Binding affinity to 5'-GCCCCCCG-3' DNA hairpin assessed as change in fluorescence intensity at 1 uM after 45 mins by fluorescence quenching analysis relative to control
[34] = Binding affinity to 5'-CGGCCCCC-3' DNA hairpin assessed as change in fluorescence intensity at 1 uM after 45 mins by fluorescence quenching analysis relative to control
[35] = Binding affinity to 5'-GGCCCGCG-3' DNA hairpin assessed as change in fluorescence intensity at 1 uM after 45 mins by fluorescence quenching analysis relative to control
[36] = Binding affinity to 5'-CCGCCGCC-3' DNA hairpin assessed as change in fluorescence intensity at 1 uM after 45 mins by fluorescence quenching analysis relative to control

For `NCC1O[C@H](O[C@H]2[C@@H](O)[C@H](O[C@@H]3[C@@H](O)[C@H](N)C[C@H](N)[C@H]3O[C@H]3O[C@H](CN)[C@@H](O)[C@H](O)[C@H]3N)O[C@@H]2CSCCNC(=O)CCSCC(=O)Nc2ccc(-c3c4ccc(=O)cc-4oc4cc(O)ccc34)c(C(=O)O)c2)[C@H](N)[C@@H](O)[C@@H]1O` (stereo partly specified), the Activity [1] was 43.7%, the Activity [2] was 41.4% and the Activity [3] was 33.7%. The Activity [4] was 30.9%, the Activity [5] was 41.9% and the Activity [6] was 41.4%. The Activity [7] was 41.1%, the Activity [8] was 23.6% and the Activity [9] was 47.7%. The Activity [10] was 63.4%, the Activity [11] was 49.8% and the Activity [12] was 39.1%. It also gave an Activity [13] of 41.5%, an Activity [14] of 34.4% and an Activity [15] of 37.5%. It also gave an Activity [16] of 52.2%, an Activity [17] of 45% and an Activity [18] of 37%. For the same compound, the Activity [19] was 39.6%, the Activity [20] was 52.6% and the Activity [21] was 38%. It also gave an Activity [22] of 35.1%, an Activity [23] of 43.6% and an Activity [24] of 53.7%. For the same compound, the Activity [25] was 51.9%, the Activity [26] was 28.8% and the Activity [27] was 46.7%. For the same compound, the Activity [28] was 45.8%, the Activity [29] was 44.4% and the Activity [30] was 43.2%. For the same compound, the Activity [31] was 20.2%, the Activity [32] was 50.9% and the Activity [33] was 19.8%. The Activity [34] was 29.6%, the Activity [35] was 34.3% and the Activity [36] was 52.2%.
